From patent publication US20250019387A1 (Frontier Medicines Corporation, priority 0001, published 2025)
pIC50: −log10 of the molar value.

Biological target: KRAS G12C and cRAF (Ras-binding domain) interaction (Homo sapiens (Human), UniProt P01116, C118S/C51S/C80L/G12C)
Assay: Inhibition of KRAS G12C and cRAF binding (AlphaScreen)
Settings: GMPPNP-loaded KRAS G12C, 19-20 hours incubation with compound; read-out: IC50 (Inhibition of KRAS G12C and cRAF Binding)
Summary of the method: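 IC50 values come from 4-parameter nonlinear regression of AlphaScreen signal (680 nm excitation, 570 nm emission). Compound plates sat 19-20 h at room temperature before RBD and donor/acceptor beads were added in Hepes pH 7.4 buffer with 150 mM NaCl, 5 mM MgCl2, 2% DMSO for 60-90 min; biotin-AviTag-GST replaced RBD to flag assay-technology interferers.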

Sequence of KRAS G12C and cRAF (Ras-binding domain) interaction (P01116 other isoform, or with tags, fused parts or gaps G12C/C51S/C80L/C118S): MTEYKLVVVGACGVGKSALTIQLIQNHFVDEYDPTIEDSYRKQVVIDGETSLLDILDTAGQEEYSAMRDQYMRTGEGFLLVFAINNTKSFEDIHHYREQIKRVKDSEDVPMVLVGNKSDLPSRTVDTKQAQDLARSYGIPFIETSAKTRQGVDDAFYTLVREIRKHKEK

Row | SMILES | pIC50
1 | Cc1nccc(/C=C/C(=O)N2CC[C@@H](N(C)c3nc(OC[C@@]45CCCN4C[C@H](F)C5)nc4c(F)c(-c5cccc6cccc(Cl)c56)ncc34)C2)n1 [Example 72, (E)-1-((R)-3-((7-(8-chloronaphthalen-1-yl)-8-fluoro-2-(((2R,7aS)-2-fluorotetrahydro-1H-pyrrolizin-7a(5H)-yl)methoxy)pyrido[4,3-d]pyrimidin-4-yl)(methyl)amino)pyrrolidin-1-yl)-3-(2-methylpyrimidin-4-yl)prop-2-en-1-one] | 6.30 to 7.00
2 | C=CC(=O)N1C[C@H](F)[C@@H](N(C)c2nc(OC[C@@]34CCCN3C[C@H](F)C4)nc3c(F)c(-c4cccc5cccc(Cl)c45)ncc23)C1 [Example 73, 1-((3S,4S)-3-((7-(8-chloronaphthalen-1-yl)-8-fluoro-2-(((2R,7aS)-2-fluorohexahydro-1H-pyrrolizin-7a-yl)methoxy)pyrido[4,3-d]pyrimidin-4-yl)(methyl)amino)-4-fluoropyrrolidin-1-yl)prop-2-en-1-one] | 7.00 to 8.00
3 | Cc1nsc(/C=C/C(=O)N2CC(CN(C)c3nc(OC[C@@]45CCCN4C[C@H](F)C5)nc4c(F)c(-c5cccc6cccc(Cl)c56)ncc34)C2)n1 [Example 74, (E)-1-(3-(((7-(8-chloronaphthalen-1-yl)-8-fluoro-2-(((2R,7aS)-2-fluorotetrahydro-1H-pyrrolizin-7a(5H)-yl)methoxy)pyrido[4,3-d]pyrimidin-4-yl)(methyl)amino)methyl)azetidin-1-yl)-3-(3-methyl-1,2,4-thiadiazol-5-yl)prop-2-en-1-one] | 6.30 to 7.00
4 | Cc1nsc(/C=C/C(=O)N2CC[C@@H](N(C)c3nc(OC[C@@]45CCCN4C[C@H](F)C5)nc4c(F)c(-c5cccc6cccc(Cl)c56)ncc34)C2)n1 [Example 75, (E)-1-((R)-3-((7-(8-chloronaphthalen-1-yl)-8-fluoro-2-(((2R,7aS)-2-fluorotetrahydro-1H-pyrrolizin-7a(5H)-yl)methoxy)pyrido[4,3-d]pyrimidin-4-yl)(methyl)amino)pyrrolidin-1-yl)-3-(3-methyl-1,2,4-thiadiazol-5-yl)prop-2-en-1-one] | 7.00 to 8.00
5 | C[C@H](F)c1noc(/C=C/C(=O)N2CC(CN(C)c3nc(OC[C@@]45CCCN4C[C@H](F)C5)nc4c(F)c(-c5cccc6cccc(Cl)c56)ncc34)C2)n1 [Example 76, (E)-1-(3-(((7-(8-chloronaphthalen-1-yl)-8-fluoro-2-(((2R,7aS)-2-fluorotetrahydro-1H-pyrrolizin-7a(5H)-yl)methoxy)pyrido[4,3-d]pyrimidin-4-yl)(methyl)amino)methyl)azetidin-1-yl)-3-(3-((S)-1-fluoroethyl)-1,2,4-oxadiazol-5-yl)prop-2-en-1-one] | > 8.00
6 | C[C@H](F)c1noc(/C=C/C(=O)N2CC[C@@H](N(C)c3nc(OC[C@@]45CCCN4C[C@H](F)C5)nc4c(F)c(-c5cccc6cccc(Cl)c56)ncc34)C2)n1 [Example 77, (E)-1-((R)-3-((7-(8-chloronaphthalen-1-yl)-8-fluoro-2-(((2R,7aS)-2-fluorohexahydro-1H-pyrrolizin-7a-yl)methoxy)pyrido[4,3-d]pyrimidin-4-yl)(methyl)amino)pyrrolidin-1-yl)-3-(3-((S)-1-fluoroethyl)-1,2,4-oxadiazol-5-yl)prop-2-en-1-one] | > 8.00
7 | CN(CC1CN(C(=O)/C=C/c2nc(C(C)(C)O)no2)C1)c1nc(OC[C@@]23CCCN2C[C@H](F)C3)nc2c(F)c(-c3cccc4ccc(F)c(Cl)c34)ncc12 [Example 78, (E)-1-(3-(((7-(8-chloro-7-fluoronaphthalen-1-yl)-8-fluoro-2-(((2R,7aS)-2-fluorotetrahydro-1H-pyrrolizin-7a(5H)-yl)methoxy)pyrido[4,3-d]pyrimidin-4-yl)(methyl)amino)methyl)azetidin-1-yl)-3-(3-(2-hydroxypropan-2-yl)-1,2,4-oxadiazol-5-yl)prop-2-en-1-one] | > 8.00
8 | CN(CC1CN(C(=O)/C=C/CN2CCOCC2)C1)c1nc(OC[C@@]23CCCN2C[C@H](F)C3)nc2c(F)c(-c3cccc4ccc(F)c(Cl)c34)ncc12 [Example 79, (E)-1-(3-(((7-(8-chloro-7-fluoronaphthalen-1-yl)-8-fluoro-2-(((2R,7aS)-2-fluorotetrahydro-1H-pyrrolizin-7a(5H)-yl)methoxy)pyrido[4,3-d]pyrimidin-4-yl)(methyl)amino)methyl)azetidin-1-yl)-4-morpholinobut-2-en-1-one] | 7.00 to 8.00
9 | C=CC(=O)N1CC[C@@H](N(C)c2nc(OC[C@@]34CCCN3C[C@H](F)C4)nc3c(F)c(-c4cc(OC(F)F)cc5cccc(Cl)c45)ncc23)C1 [Example 82, 1-((R)-3-((7-(8-chloro-3-(difluoromethoxy)naphthalen-1-yl)-8-fluoro-2-(((2R,7aS)-2-fluorotetrahydro-1H-pyrrolizin-7a(5H)-yl)methoxy)pyrido[4,3-d]pyrimidin-4-yl)(methyl)amino)pyrrolidin-1-yl)prop-2-en-1-one] | < 6.30

The next lines start with the values.

Row | pIC50 | SMILES
10 | 7.00 to 8.00 | C=CC(=O)N1CC[C@@H](N(C)c2nc(OC[C@]34CCCN3C[C@H](F)C4)nc3c(F)c(-c4cccc5ccc(F)c(Cl)c45)ncc23)C1 [Example 81, 1-((R)-3-((7-(8-chloro-7-fluoronaphthalen-1-yl)-8-fluoro-2-(((2R,7aR)-2-fluorotetrahydro-1H-pyrrolizin-7a(5H)-yl)methoxy)pyrido[4,3-d]pyrimidin-4-yl)(methyl)amino)pyrrolidin-1-yl)prop-2-en-1-one]
11 | > 8.00 | C[C@@H](F)c1noc(/C=C/C(=O)N2CC(CN(C)c3nc(OC[C@@]45CCCN4C[C@H](F)C5)nc4c(F)c(-c5cccc6cccc(Cl)c56)ncc34)C2)n1 [Example 83, (E)-1-(3-(((7-(8-chloronaphthalen-1-yl)-8-fluoro-2-(((2R,7aS)-2-fluorotetrahydro-1H-pyrrolizin-7a(5H)-yl)methoxy)pyrido[4,3-d]pyrimidin-4-yl)(methyl)amino)methyl)azetidin-1-yl)-3-(3-((R)-1-fluoroethyl)-1,2,4-oxadiazol-5-yl)prop-2-en-1-one]
12 | > 8.00 | C[C@@H](F)c1noc(/C=C/C(=O)N2CC[C@@H](N(C)c3nc(OC[C@@]45CCCN4C[C@H](F)C5)nc4c(F)c(-c5cccc6cccc(Cl)c56)ncc34)C2)n1 [Example 84, (E)-1-((R)-3-((7-(8-chloronaphthalen-1-yl)-8-fluoro-2-(((2R,7aS)-2-fluorotetrahydro-1H-pyrrolizin-7a(5H)-yl)methoxy)pyrido[4,3-d]pyrimidin-4-yl)(methyl)amino)pyrrolidin-1-yl)-3-(3-((R)-1-fluoroethyl)-1,2,4-oxadiazol-5-yl)prop-2-en-1-one]
13 | > 8.00 | CC(C)c1noc(/C=C/C(=O)N2CC[C@@H](N(C)c3nc(OCC45CCCN4CCC5)nc4c(F)c(-c5cccc6ccc(F)c(Cl)c56)ncc34)C2)n1 [Example 85, (R,E)-1-(3-((7-(8-chloro-7-fluoronaphthalen-1-yl)-8-fluoro-2-((hexahydro-1H-pyrrolizin-7a-yl)methoxy)pyrido[4,3-d]pyrimidin-4-yl)(methyl)amino)pyrrolidin-1-yl)-3-(3-isopropyl-1,2,4-oxadiazol-5-yl)prop-2-en-1-one]
14 | > 8.00 | Cc1noc(/C=C/C(=O)N2CC(CN(C)c3nc(OC[C@@]45CCCN4C[C@H](F)C5)nc4c(F)c(-c5cc(O)cc6ccccc56)ncc34)C2)n1 [Example 86, (E)-1-(3-(((8-fluoro-2-(((2R,7aS)-2-fluorotetrahydro-1H-pyrrolizin-7a(5H)-yl)methoxy)-7-(3-hydroxynaphthalen-1-yl)pyrido[4,3-d]pyrimidin-4-yl)(methyl)amino)methyl)azetidin-1-yl)-3-(3-methyl-1,2,4-oxadiazol-5-yl)prop-2-en-1-one]
15 | 6.30 to 7.00 | C=CC(=O)N1C[C@H](N(C)c2nc(OC[C@@]34CCCN3C[C@H](F)C4)nc3c(F)c(-c4cccc5cccc(Cl)c45)ncc23)C[C@@H]1CC#N [Example 87, 2-((2R,4R)-1-acryloyl-4-((7-(8-chloronaphthalen-1-yl)-8-fluoro-2-(((2R,7aS)-2-fluorotetrahydro-1H-pyrrolizin-7a(5H)-yl)methoxy)pyrido[4,3-d]pyrimidin-4-yl)(methyl)amino)pyrrolidin-2-yl)acetonitrile]
16 | > 8.00 | CN(c1nc(OC[C@@]23CCCN2C[C@H](F)C3)nc2c(F)c(-c3cccc4ccc(F)c(Cl)c34)ncc12)[C@@H]1CCN(C(=O)/C=C/c2nc(C(C)(C)O)no2)C1 [Example 88, (E)-1-((R)-3-((7-(8-chloro-7-fluoronaphthalen-1-yl)-8-fluoro-2-(((2R,7aS)-2-fluorotetrahydro-1H-pyrrolizin-7a(5H)-yl)methoxy)pyrido[4,3-d]pyrimidin-4-yl)(methyl)amino)pyrrolidin-1-yl)-3-(3-(2-hydroxypropan-2-yl)-1,2,4-oxadiazol-5-yl)prop-2-en-1-one]
17 | 7.00 to 8.00 | CN(CC1CN(C(=O)/C=C/CN2CCOCC2)C1)c1nc(OC[C@@]23CCCN2C[C@H](F)C3)nc2c(F)c(-c3cccc4cccc(Cl)c34)ncc12 [Example 89, (E)-1-(3-(((7-(8-chloronaphthalen-1-yl)-8-fluoro-2-(((2R,7aS)-2-fluorotetrahydro-1H-pyrrolizin-7a(5H)-yl)methoxy)pyrido[4,3-d]pyrimidin-4-yl)(methyl)amino)methyl)azetidin-1-yl)-4-morpholinobut-2-en-1-one]
18 | 7.00 to 8.00 | CN(c1nc(OC[C@@]23CCCN2C[C@H](F)C3)nc2c(F)c(-c3cccc4cccc(Cl)c34)ncc12)[C@@H]1CCN(C(=O)/C=C/CN2CCOCC2)C1 [Example 90, (E)-1-((R)-3-((7-(8-chloronaphthalen-1-yl)-8-fluoro-2-(((2R,7aS)-2-fluorohexahydro-1H-pyrrolizin-7a-yl)methoxy)pyrido[4,3-d]pyrimidin-4-yl)(methyl)amino)pyrrolidin-1-yl)-4-morpholinobut-2-en-1-one]
